Laboratory results from publication PMC13441969, “Zero-shot design of drug-binding proteins via neural iterative selection−expansion” (Nature, 2026).
“Also recorded” adds a separate entry of the source. Where a name gives a salt, the structure may show the parent alone.

Legend:
EPIC = assay: Fluorescence anisotropy of fluorescent ligands binding to EPIC; conditions: for Kd / binding of ligand to EPIC (words): [ligand] = 50 nM; for Kd: 1:1 binding model; for binding of ligand to EPIC (words): dexamethasone and apixaban as FITC conjugates
Description: including the ProteinMPNN-designed sequences along with the Ala/Gly versions, are available […]
Fluorescence Polarization Experiments to Determine Binding Affinities
We performed fluorescence anisotropy experiments in a 384 -well plate -reader format to determine the binding affinities of protein s with various ligands (Supp. Fig. 15 and Supp. Table 6). We serially diluted an initial solution containing a high concentration of protein while keeping a constant concentration of ligand (50 nM) in each well. The buffer for these assays was composed of 1x PBS, pH 7.4, and 0.1% w/v PEG-8000. Camptothecin-class molecules (exatecan, camptothecin, belotecan, FL118, irinotecan) were excited at a wavelength of 360 nm using a BMG LabTech PHERAstar FSX plate reader or a BMG LabTech CLARIOstar Plus plate reader. We detected the resulting parallel and perpendicularly polarized emission at 440 nm. […]
excited using 482 nm filter (16 nm bandwidth) using a BMG LabTech CLARIOstar Plus plate reader, and parallel and perpendicularly polarized emissions were detected through a 530 nm filter (40 nm bandwidth). Data was fit using the quadratic form of a single-site binding model.
Gain settings for each molecule were calculated by auto-adjusting the focus on a well containing free ligand and buffer, setting the millipolarization (mP) of free ligand to mP = 35.
Fits to Fluorescence Anisotropy Data
Data from fluorescence anisotropy (r) experiments, which varied total protein concentration, [P]T for a fixed total ligand concentration, [L]T, was fit to a single-site binding […]
model (Equations 1 and 2, N = 1). […] For
EPIC and its mutants, confidence intervals of the fit parameters were determined from bootstrapping the residuals of the optimum fit (random residual selection with replacement) to create 1000 synthetic datasets, which were each separately fit to Equations 1 and 2. Parameter means and 95% confidence intervals were determined from the distribution of the parameters computed from the bootstrapped fits.
We performed separate protein titrations across three fixed exatecan concentration s (25 , 12.5 , and 5 nM) and measured fluorescence anisotropy of exatecan as a function of protein concentration . For each EPIC mutant, the dissociation constant (Kd) and anisotropy baseline (A min) were shared parameters across the three exatecan concentrations. Anisotropy maxima (Amax) and ligand concentration ([L]T) were fit locally. We fit the ligand concentrations locally (to within 15% of the target concentration) to account for experimental discrepancies. Code for performing the fitting is provided in Zenodo16. […]

[1] = Exatecan lactone hydrolysis by time-resolved absorbance; assay type: physicochemical; conditions: room temperature, pH 7.4; 3 half-lives
[2] = parameters: method as in PMID 35318309, PMID 31620223; conditions: read-out: cellular half-maximum inhibitory concentration (IC50); cited from earlier work
[3] = parameters: method as in PMID 11595695; conditions: cited from earlier work

| Compound | ΔΔG (change in binding free energy) relative to the exatecan–EPIC complex (EPIC) | Kd (EPIC) | binding of ligand to EPIC (words) (EPIC) | further results |
| --- | --- | --- | --- | --- |
| CC[C@@]1(O)C(=O)OCc2c1cc1n(c2=O)Cc2cc3ccccc3nc2-1 [camptothecin, Camptothecin] | 3.9 kcal/mol | 90 µM | – | – |
| CC[C@@]1(O)C(=O)OCc2c1cc1n(c2=O)Cc2c-1nc1ccccc1c2CCNC(C)C [belotecan, Belotecan hydrochloride] | 3.0 kcal/mol | 19 µM | – | – |
| COc1ccc(-n2nc(C(N)=O)c3c2C(=O)N(c2ccc(N4CCCCC4=O)cc2)CC3)cc1 [apixaban, Apixaban] | – | – | no appreciable binding; also recorded: does not bind | – |
| CCc1c2c(nc3ccc(OC(=O)N4CCC(N5CCCCC5)CC4)cc13)-c1cc3c(c(=O)n1C2)COC(=O)[C@]3(O)CC [irinotecan] | – | – | not to bind; also recorded: no appreciable binding | binding of ligand to EPIC (words) (EPIC; listed as Irinotecan): negligible binding |
| C[C@@H]1C[C@H]2[C@@H]3CCC4=CC(=O)C=C[C@]4(C)[C@@]3(F)[C@@H](O)C[C@]2(C)[C@@]1(O)C(=O)CO [dexamethasone] | – | – | no binding; also recorded: does not bind | binding of ligand to EPIC (words) (EPIC; listed as Dexamethasone): no appreciable binding |
| CC[C@@]1(O)C(=O)OCc2c1cc1n(c2=O)Cc2cc3cc4c(cc3nc2-1)OCO4 [FL118] | 2.3 kcal/mol | 6 µM | – | – |
| COc1ccc(-n2nc(C(=O)NCCOCCOCCNC(=S)Nc3ccc(-c4c5ccc(=O)cc-5oc5cc(O)ccc45)c(C(=O)O)c3)c3c2C(=O)N(c2ccc(N4CCCCC4=O)cc2)CC3)cc1 [apixaban-peg-FITC] | – | – | did not show any experimentally detectable binding | – |
| CC[C@@]1(O)C(=O)OCc2c1cc1n(c2=O)Cc2c-1nc1cc(F)c(C)c3c1c2[C@@H](N)CC3 [exatecan, Exatecan mesylate] | – | 0.12 µM | – | fold tighter binding of EPIC to exatecan than to any other ligand tested (EPIC): at least 50 fold; time for nearly complete conversion from C to O form [1]: ≤ 6 h; IC50 [2]: ~0.001 µM; half-life of hydrolysis of free drug in plasma ([3]; plasma): around 2 h; steady-state level of lactone form in human plasma ([3]; within 10 h): 15% |
